One data set concerns influenza A virus H5N1. As to the kind of experiment: microbe, parasite or virus in culture. It is filed as cell-based.
Another data set can be described thus: in vitro. Conditions: dog.
Data set [1] deals with influenza virus H1N1. As to the kind of experiment: Investigation on cell binding of influenza virus (virus and sample mixed, 4° C., MTT cell viability). It is filed as cell-based, influenza A virus.
Another data set deals with influenza B virus. As to the kind of experiment: microbe, parasite or virus in culture. The format is cell-based.
The test system of the next data set is influenza A virus H3N2. Kind of data set: microbe, parasite or virus in culture. The format is cell-based.
In the next data set the test system is influenza A virus H1N1. As to the kind of experiment: microbe, parasite or virus in culture. It is filed as cell-based.
Data set [2] concerns influenza virus H1N1. It is filed as cell-based, influenza A virus.

Converted amounts (≈) assume the structure as drawn.

In the case of `CCOC(=O)C1=C[C@@H](OC(CC)CC)[C@H](NC(C)=O)[C@@H](N)C1` [Tamiflu], the SI came out at 740 in the data set on influenza A virus H5N1 (H5N1, CC50 value divided by the EC50 value); 81 in the data set on influenza B virus (CC50 value divided by the EC50 value); 317 in the data set with influenza A virus H3N2 (H3N2, CC50 value divided by the EC50 value); 317 in the data set on influenza A virus H1N1 (H1N1, CC50 value divided by the EC50 value). Also, the half-maximal effective concentration (EC50) came out at 1.5 µg/mL (≈ 4.8 µM) in the data set on influenza A virus H5N1 (Influenza A virus, H5N1, MDCK, 48 h); 13.7 µg/mL (≈ 43.9 µM) in the data set with influenza B virus (MDCK cells, post-treatment, 48 hours); 3.5 µg/mL (≈ 11.2 µM) in the data set on influenza A virus H3N2 (Influenza A virus, H3N2, MDCK cells, post-treatment, 48 hours); 3.5 µg/mL (≈ 11.2 µM) with influenza A virus H1N1 (Influenza A virus, H1N1, MDCK cells, post-treatment, 48 hours). This compound also gave a CC50 in the data set “in vitro” of 1110 µg/mL (≈ 3560 µM). In addition, in the data set with influenza virus H1N1 [1], the “antiviral effect in virus binding test” value is recorded as “no antiviral effect”. The “observing the cells by a microscope, post-treatment” value with influenza A virus H1N1 was “many cells were infected and dead”. For the same compound, in the data set on influenza virus H1N1 [2], the “CPE of cells, virus preventive effect” value is “all the cells treated with Tamiflu were dead”. Besides, the “observing the cells using a microscope, virus preventive effect” value in the data set with influenza virus H1N1 [2] is given as “infected cell state”.
